Laboratory results from patent US20260070917A1, “CYCLIN DEPENDENT KINASE DEGRADERS AND METHODS OF USE THEREOF” (Differentiated Therapeutics Inc, priority 2023, published 2026).
Where two headings read alike, the source gives them in different places.

Legend:
Type in all cases: cell-based
CDK9 = biological target: T1, CDK9 (Homo sapiens, UniProt P50750); experiment: HiBit Assay Protocol for CDK9 (HIBIT protein quantification, degradation); details: HEK293-CDK9-Hibit cells, compound treatment for 6 hours; for Dmax: read-out: CDK9 HIBIT Protein Quantification Maximum
T1 construct: host or cells: HEK293-CDK9-Hibit
T1 sequence (P50750 whole entry): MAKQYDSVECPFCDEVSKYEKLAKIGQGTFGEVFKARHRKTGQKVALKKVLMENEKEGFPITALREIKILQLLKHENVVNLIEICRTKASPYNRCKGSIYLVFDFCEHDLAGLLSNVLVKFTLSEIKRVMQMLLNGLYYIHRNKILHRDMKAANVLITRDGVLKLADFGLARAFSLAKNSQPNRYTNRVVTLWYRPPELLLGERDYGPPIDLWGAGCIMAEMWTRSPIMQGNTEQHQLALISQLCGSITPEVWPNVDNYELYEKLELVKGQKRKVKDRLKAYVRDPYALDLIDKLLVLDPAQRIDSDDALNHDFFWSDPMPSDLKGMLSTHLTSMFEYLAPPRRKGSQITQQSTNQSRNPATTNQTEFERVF
Procedure, shortened: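 Degradation read-out: luminescence after lytic HiBiT/LgBiT detection in HEK293-CDK9-HiBiT cells exposed 6 h to 10-point, 3-fold compound dilutions. Signal scaled between 0.1% DMSO-treated cells and medium alone; DC50 fitted from the curve.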

CDK2 = biological target: T2, CDK2 (Homo sapiens, UniProt P24941); experiment: HiBit Assay Protocol for CDK2 (HIBIT protein quantification, degradation); details: HEK293-CDK2-Hibit cells, compound treatment for 6 hours; for DC50: ABS DC50
T2 construct: host or cells: HEK293-CDK2-Hibit
Procedure, shortened: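 DC50 comes from a fitted curve of remaining CDK2-HiBiT luminescence, referenced to DMSO-treated cells and medium-only wells. HEK293-CDK2-HiBiT cells, plated the previous night, received compounds in a 10-point, 3-fold series for 6 h before lysis with LgBiT-containing Nano-Glo HiBiT reagent.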

CCNE1 = biological target: T3, CCNE1 (Homo sapiens, UniProt P24864); experiment: HiBit Assay Protocol for CCNE1 (HIBIT protein quantification, degradation); details: HEK293-CCNE1-Hibit cells, compound treatment for 6 hours
T3 construct: host or cells: HEK293-CCNE1-Hibit
T3 sequence (P24864 whole entry): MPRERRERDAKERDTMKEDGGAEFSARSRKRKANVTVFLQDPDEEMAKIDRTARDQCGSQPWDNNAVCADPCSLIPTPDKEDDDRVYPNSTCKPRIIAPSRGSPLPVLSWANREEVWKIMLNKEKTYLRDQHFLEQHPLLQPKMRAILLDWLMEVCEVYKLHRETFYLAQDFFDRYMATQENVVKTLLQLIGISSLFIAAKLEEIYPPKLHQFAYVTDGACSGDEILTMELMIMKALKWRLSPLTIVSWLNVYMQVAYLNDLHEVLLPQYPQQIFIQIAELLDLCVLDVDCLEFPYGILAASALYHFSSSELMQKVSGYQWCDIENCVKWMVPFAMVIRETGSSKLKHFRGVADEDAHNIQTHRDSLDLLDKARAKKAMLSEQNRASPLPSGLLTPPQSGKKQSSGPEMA
Procedure, shortened: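 Degradation readout: lytic Nano-Glo HiBiT luminescence after 6 h exposure of HEK293-CCNE1-HiBiT cells to 10-point, 3-fold serial dilutions. Signal was scaled between medium-only and DMSO-treated wells, and DC50 came from curve fits.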

| CDK2 HIBIT Protein Quantification Maximum (CDK2) [%] | DC50 (CDK2) [nM] | CCNE1 HIBIT Protein Quantification Maximum (CCNE1) [%] | Dmax (CDK9; 6 h) [%] | DC50 (CDK9; ABS DC50) [nM] | SMILES | Dmax (CDK9) [%] |
| --- | --- | --- | --- | --- | --- | --- |
| 78 | 7.82 | 20 | 15 |  | Cn1c(=O)n(C2CCC(=O)NC2=O)c2ccc(N3CCN(Cc4cccc(S(=O)(=O)N5CCC(Nc6ncc7c(n6)N([C@@H]6CCC[C@@H](O)C6)C(=O)C76CC6)CC5)c4)CC3)cc21 (stereo partly drawn) [Compound 179, 3-[5-(4-{[3-(4-{7′-[(1R,3R)-3-Hydroxycyclohexyl]-6′-oxospiro[cyclopropane-1,5′-pyrrolo[2,3-d]pyrimidin]-2′-ylamino}piperidin-1-ylsulfonyl)phenyl]methyl}piperazin-1-yl)-3-methyl-2-oxo-1,3-benzodiazol-1-yl]piperidine-2,6-dione] |  |
| 72 | 6 | 44 | 61 | 13.6 | CC1CCCC1N1C(=O)C2(CC2)c2cnc(NC3CCN(S(=O)(=O)N4CC(N(C)C(=O)CCCCCc5cccc6c5n(C)c(=O)n6C5CCC(=O)NC5=O)C4)CC3)nc21 (stereo not shown) [Compound 34] |  |
| 55 | 4.43 | 29 | 15 |  | Cn1nc(N2CCC(=O)NC2=O)c2ccc(C3CCN(Cc4ccc(F)c(S(=O)(=O)N5CCC(Nc6ncc7c(n6)N([C@@H]6CCC[C@@H](O)C6)C(=O)C76CC6)CC5)c4)CC3)cc21 [Compound 171] |  |
| 91 | 10.5 | 33 | 8 |  | C[C@@H](c1cccc(S(=O)(=O)N2CC[C@H](Nc3ncc4c(n3)N([C@@H]3CCC[C@@H](O)C3)C(=O)C43CC3)[C@H](F)C2)c1)N1CCN(c2ccc3c(N4CCC(=O)NC4=O)nn(C)c3c2)CC1 [Compound 197] |  |
| 77 | 6.02 | 38 | 11 |  | Cn1c(=O)n(C2CCC(=O)NC2=O)c2cccc(N3CCN(Cc4cccc(S(=O)(=O)N5CCC(Nc6ncc7c(n6)N([C@@H]6CCC[C@@H](O)C6)C(=O)C76CC6)CC5)c4)CC3)c21 (stereo partly drawn) [Compound 181, 3-[4-(4-{[3-(4-{7′-[(1R,3R)-3-hydroxycyclohexyl]-6′-oxospiro[cyclopropane-1,5′-pyrrolo[2,3-d]pyrimidin]-2′-ylamino}piperidin-1-ylsulfonyl)phenyl]methyl}piperazin-1-yl)-3-methyl-2-oxo-1,3-benzodiazol-1-yl]piperidine-2,6-dione] |  |
| 78 | 10.1 | 44 | 13 |  | Cn1nc(N2CCC(=O)NC2=O)c2ccc(C3CCN(Cc4ccnc(S(=O)(=O)N5CCC(Nc6ncc7c(n6)N([C@@H]6CCC[C@@H](O)C6)C(=O)C76CC6)CC5)c4)CC3)cc21 [Compound 165, 1-[6-(1-{[2-(4-{7′-[(1R,3R)-3-Hydroxycyclohexyl]-6′-oxospiro[cyclopropane-1,5′-pyrrolo[2,3-d]pyrimidin]-2′-ylamino}piperidin-1-ylsulfonyl)pyridin-4-yl]methyl}piperidin-4-yl)-1-methylindazol-3-yl]-1,3-diazinane-2,4-dione] |  |
| 65 | 3.23 | 50 | 11 |  | CC1CCCC1N1C(=O)C2(CC2)c2cnc(NC3CCN(S(=O)(=O)N4CC5(CCCN(C6CCN(c7cccc8c7n(C)c(=O)n8C7CCC(=O)NC7=O)CC6)C5)C4)CC3)nc21 (stereo not shown) [Compound 139] |  |
| 51 | 42 | 18 | 17 |  | CC1CCCC1N1C(=O)C2(CC2)c2cnc(NC3CCN(S(=O)(=O)N4CCC5(CCN(C(=O)CCCc6ccc7c(c6)n(C)c(=O)n7C6CCC(=O)NC6=O)C5)C4)CC3)nc21 (stereo not shown) [Compound 129] |  |
| 35 |  | 42 | 15 |  | CC1CCCC1N1C(=O)C2(CC2)c2cnc(NC3CCN(S(=O)(=O)C4CCCN(C(=O)CCCCCCCc5cccc6c5n(C)c(=O)n6C5CCC(=O)NC5=O)C4)CC3)nc21 (stereo not shown) [Compound 48] |  |
| 67 | 12.9 | 41 | 45 |  | Cn1c(=O)n(C2CCC(=O)NC2=O)c2cccc(-c3ccc(Oc4cccc(S(=O)(=O)N5CCC(Nc6ncc7c(n6)N([C@@H]6CCC[C@@H](O)C6)C(=O)C76CC6)CC5)c4)cc3)c21 (stereo partly shown) [Compound 150] |  |
| 85 | 7.18 | 48 | 34 |  | Cn1nc(N2CCC(=O)NC2=O)c2ccc(C3CCN(Cc4cccc(S(=O)(=O)N5CCC(Nc6ncc7c(n6)N([C@@H]6CCC[C@@H](O)C6)C(=O)C76CC6)CC5)c4)CC3F)cc21 (stereo partly drawn) [Compound 180, 1-[6-(3-Fluoro-1-{[3-(4-{7′-[(1R,3R)-3-hydroxycyclohexyl]-6′-oxospiro[cyclopropane-1,5′-pyrrolo[2,3-d]pyrimidin]-2′-ylamino}piperidin-1-ylsulfonyl)phenyl]methyl}piperidin-4-yl)-1-methylindazol-3-yl]-1,3-diazinane-2,4-dione] |  |
| 46 |  | 24 | 17 |  | CC1CCCC1N1C(=O)C2(CC2)c2cnc(NC3CCN(S(=O)(=O)N4CC5(CCN(C(=O)CCc6ccc7c(c6)n(C)c(=O)n7C6CCC(=O)NC6=O)CC5)C4)CC3)nc21 (stereo not shown) [Compound 59] |  |
| 64 | 7.87 | 31 | 15 |  | C[C@@H]1CN(S(=O)(=O)c2cccc(CN3CCC(c4ccc5c(N6CCC(=O)NC6=O)nn(C)c5c4)CC3)c2)CC[C@H]1Nc1ncc2c(n1)N([C@@H]1CCC[C@@H](O)C1)C(=O)C21CC1 [Compound 154] |  |
| −3 |  | 6 | 15 |  | CC1CCCC1N1C(=O)C2(CC2)c2cnc(NC3CCN(S(=O)(=O)N4CC5CN(C(=O)CCCc6ccc7c(c6)n(C)c(=O)n7C6CCC(=O)NC6=O)CC54)CC3)nc21 (stereo not shown) [Compound 70] |  |
| 55 | 7 | 21 | 24 |  | CC1CCCC1N1C(=O)C2(CC2)c2cnc(NC3CCN(S(=O)(=O)N4CC5(CCN(C(=O)CCCCCCCCCc6ccc7c(c6)n(C)c(=O)n7C6CCC(=O)NC6=O)CC5)C4)CC3)nc21 (stereo not shown) [Compound 88] |  |
| 19 |  | 29 | 8 |  | CC1CCCC1N1C(=O)C2(CC2)c2cnc(NC3CCN(S(=O)(=O)N4CCCC45CCN(C(=O)CCCCCc4ccc6c(c4)n(C)c(=O)n6C4CCC(=O)NC4=O)C5)CC3)nc21 (stereo not shown) [Compound 74] |  |

| SMILES | CDK2 HIBIT Protein Quantification Maximum (CDK2) [%] | DC50 (CDK2) [nM] | CCNE1 HIBIT Protein Quantification Maximum (CCNE1) [%] | Dmax (CDK9; 6 h) [%] | DC50 (CDK9; ABS DC50) [nM] | Dmax (CDK9) [%] |
| --- | --- | --- | --- | --- | --- | --- |
| Cn1c(=O)n(C2CCC(=O)NC2=O)c2ccc(C3CCN(Cc4cccc(S(=O)(=O)N5CCC(Nc6ncc7c(n6)N([C@@H]6CCC[C@@H](O)C6)C(=O)C76CC6)CC5)c4)CC3)cc21 (stereo partly drawn) [Compound 147, 3-[5-(1-{[3-(4-{7′-[(1R,3R)-3-Hydroxycyclohexyl]-6′-oxospiro[cyclopropane-1,5′-pyrrolo[2,3-d]pyrimidin]-2′-ylamino}piperidin-1-ylsulfonyl)phenyl]methyl}piperidin-4-yl)-3-methyl-2-oxo-1,3-benzodiazol-1-yl]piperidine-2,6-dione] | 64 | 11 | 13 |  |  | 2 |
| CC1CCCC1N1C(=O)C2(CC2)c2cnc(NC3CCN(S(=O)(=O)N4CC5(CCCN(c6cccc(-c7cccc8c7n(C)c(=O)n8C7CCC(=O)NC7=O)c6)C5)C4)CC3)nc21 (stereo not shown) [Compound 136, 3-{3-Methyl-4-[3-(2-{4-[7′-(2-methylcyclopentyl)-6′-oxospiro[cyclopropane-1,5′-pyrrolo[2,3-d]pyrimidin]-2′-ylamino]piperidin-1-ylsulfonyl}-2,6-diazaspiro[3.5]nonan-6-yl)phenyl]-2-oxo-1,3-benzodiazol-1-yl}piperidine-2,6-dione] | 61 | 131 | 7 |  |  | 14 |
| O=C1CCC(N2Cc3cc(N4CCC(N5CC(Oc6cccc(S(=O)(=O)N7CCC(Nc8ncc9c(n8)N([C@@H]8CCC[C@@H](O)C8)C(=O)C98CC8)CC7)c6)C5)CC4)ccc3C2=O)C(=O)N1 (stereo partly drawn) [Compound 134, 3-[5-(4-{3-[3-(4-{7′-[(1R,3R)-3-Hydroxycyclohexyl]-6′-oxospiro[cyclopropane-1,5′-pyrrolo[2,3-d]pyrimidin]-2′-ylamino}piperidin-1-ylsulfonyl)phenoxy]azetidin-1-yl}piperidin-1-yl)-1-oxo-3H-isoindol-2-yl]piperidine-2,6-dione] | 74 | 4.22 | 18 |  |  | 31 |
